In patent US8829035B2, “Agent for treatment or prevention of diseases associated with activity of neurotrophic factors” (Sumitomo Chemical Company, Limited, priority 2009, dated 2014):

What was measured:
[1] = test system: rats with streptozotocin-induced diabetes; assay: Motor nerve conduction velocity (MNCV) in sciatic nerves of rats with streptozotocin-induced diabetes; assay type: in vivo, Slc:Wistar rats; settings: 5 mL/kg of 10 mg/mL drug solution orally once per day for 4 weeks, compared to solvent administration control group
Method: The preventative effect of the compounds on the prolongation of latency of the motor nerve conduction velocity (MNCV) were studied in the sciatic nerves of rats with streptozotocin-induced diabetes.
The groups were structured as a non-diabetes control group, a diabetes control group, and a drug administration group. After 8 days of convention rearing, the 8-week male Slc:Wistar rats in the respective groups were given 2 mL/kg of pH 4.5, 0.75 mmol/L citrate buffer solution (non-diabetes control group), or 2 mL/kg of a solution prepared from […] of streptozotocin (chemical name: N-(methylnitrosocarbamoyl)-α-D-glucosamine; manufacturer: SIGMA) in 0.75 mmol/L citrate buffer solution (diabetes control group and drug administration group), single administration in the caudate vein. After 4 more weeks of rearing, the animals in the non-diabetes control group and the diabetes control group were given 5 mL/kg of water for injection, while the animals in the drug administration group were given 5 mL/kg of a drug solution prepared from 10 mg/mL of the drug in water for injection. Administration for all groups was orally once per day for 4 weeks. MNCV measurements were carried out 3 times for each group. […]

[2] = test system: middle cerebral artery occlusion/reperfusion model; assay: Middle cerebral artery occlusion/reperfusion model, infarct volume; assay type: in vivo, C57BL/6J mice; settings: mice, 90 minutes occlusion; 30 mg/kg via the caudate vein at 3, 24 and 48 hours after occlusion; brains taken 3 days after occlusion/reperfusion
Method: A middle cerebral artery occlusion/reperfusion model was prepared by taking 8-week male C57BL/6J mice after 12 days convention rearing, and ligating the left and external common carotid arteries, then recanalizing them after the middle cerebral artery had been occluded for a period of 90 minutes. In this model, the compounds were administered at 3, 24, and 48 hours after occlusion as 30 mg/kg via the caudate vein. The animals were decapitated 3 days after the occlusion/reperfusion, the skulls were cut open from the cerebellar side and the brain was extracted. The extracted brains were fixed with Bouin's solution (pH 3.5-4.0). […] The infarct volumes were then calculated as shown below.
Optical microscope: digital images were taken using an optical microscope (object lens×1) that was fitted with a camera (MCD-350, Olympus). […] Based on the images pasted into the page mounts, the infarct areas (S, mm^2), lateral (left) infarct areas (mm^2) and lateral (right) non-infarct areas (MR, mm^2) were measured using an image analysis system (Win ROOF v. 5.6, Mitani), and the non-infarct areas for the left-side infarcts (ML, mm^2) [lateral (left) infarct area (mm^2)−infarct area (mm^2)] were calculated.
Using the equations below, the infarct volumes (SV, mm^3), non-infarct volumes for the left-side infarcts (MLV, mm^3), and the lateral (right) non-infarct volumes (MRV, mm^3) were calculated. […]

[3] = test system: activity of 200 ng/mL of NGF (NXF promoter-driven luciferase in PC12 cells); assay: Luciferase reporter assay (NXF promoter) in PC12 cells: potentiation of NGF activity; assay type: cell-based, rat; design: key: +: Showed relatively weak potentiation (potentiation only exhibited at 10 μM); ++: Showed potentiation; +++: Showed particularly strong potentiation (2-fold or greater potentiation of the activity of 200 ng/mL of NGF at 1 μM)
Method: The forward primer 5′-[…]-3′ and the reverse primer 5′-[…]-3′ were prepared as the PCR primers according to the sequence information for the NXF gene genome sequence (Accession Nos. AB054577 and NC—000085), and the PCR method was used to isolate from approximately 5 kbp upstream from the translated region of the NXF gene promoter portion to the vicinity of the transcription start site. For this, 1 μg of mouse genomic DNA (Takara) was used as the template, and the 2-step PCR reaction was carried out for 35 cycles, the conditions for which were 95° C./1 m in the denaturing step, and 68° C./8 m in the annealing and extension steps, to obtain the PCR product. The NXF promoter fragment was inserted into the SmaI site of the pGL3 Basic vector (Promega) in the upstream of luciferase gene to prepare a reporter plasmid that would express the luciferase enzyme driven by the NXF promoter.
PC12 cells (available from the ATCC) were cultured using RPMI medium (GIBCO-BRL) with 5% FCS (GIBCO-BR) and 15% horse serum (GIBCO-BRL) added, and 1 mM in sodium pyruvate (GIBCO-BRL), at 37° C. in the presence of 5% CO2. After transfection in 10^6 of these PC12 cells for 2 days with 12 μg of the above-described reporter plasmid and 1 μg of pRC/RSV vector (Invitrogen) using the Lipofectamine 2000 reagent (Invitrogen), the medium was exchanged for fresh medium containing 40 mg/L of geneticin sulfate (GIBCO), and this was cultured continuously. Culturing was continued for approximately 1 month with medium exchange of the cultured medium containing 40 mg/L of geneticin sulfate (GIBCO) every several days, with the result that multiple colonies of the obtained cells were picked up. Among these, one of the colonies that induced luciferase activity in the presence of 40 ng/mL of NGF (Wako Pure Chemicals) was selected and used for the cells to evaluate the activity of the compounds below.
These cells were set up in 96-well plates with 80% confluence, and the luciferase reporter assay was conducted using the Promega Steady Glo luciferase assay kit. The procedure was carried out overnight (approx. 16 hours) using culture medium containing the compound, and the Steady Glo substrate solution was added to the cells in half-diluted in PBS after removal of all remaining medium containing the compound. After this was allowed to stand for 30 minutes, the respective quantity of light produced was measured with a luminometer (Envision Perkin Elmer).
The activity of the compounds for evaluation was measured as the potentiation of the activity of 200 ng/mL of NGF. For the experiment control wells, the negative control well had medium containing only a final concentration of 0.1% DMSO, the positive control well had medium containing a saturation concentration of NGF. In addition, a test well was set up containing 0.1% DMSO with 200 ng/mL of NGF added corresponding to a 0 compound concentration. When its luciferase activity was taken as a standard, the relative luciferase activity could be calculated for the test wells to which the compound solution (dissolved in DMSO and prepared to have a final DMSO concentration of 0.1%) had been added in addition to the 200 ng/mL of NGF, to find the potentiation of the activity of 200 ng/mL of NGF due to that compound.

[4] = Test Example 4, same manner as Test Example 1, relative luciferase activity vs 200 ng/mL NGF alone

## Cc1nc2cc(-c3nc4ccccc4o3)ccc2n1C1CCOCC1 [Ex. 12, 5-(benzoxazol-2-yl)-2-methyl-1-(tetrahydropyran-4-yl)benzimidazole methanesulfonate]
[1]
  motor nerve conduction velocity (MNCV): recovery of motor nerve conduction velocity was observed
[2]
  infarct volume: reductions in the infarct volumes were confirmed

## ClC(Cl)(Cl)c1nc2cc(-c3nc4ccccc4o3)ccc2n1C1CCOCC1 [Ex. 77, 5-(benzoxazol-2-yl)-1-(tetrahydropyran-4-yl)-2-trichloromethylbenzimidazole]
[3]; [4]
  Activity (potentiation of NGF activity): +

## Cc1nc2cc(-c3nc4ccccc4o3)ccc2n1CC(=O)O [Ex. 92, 5-(benzoxazol-2-yl)-1-carboxymethyl-2-methylbenzimidazole]
[3]; [4]
  Activity (potentiation of NGF activity): ++

## Cc1nc2cc(-c3nc4ccccc4o3)ccc2n1C1CCCCC1 [Ex. 16, 5-(benzoxazol-2-yl)-1-cyclohexyl-2-methylbenzimidazole]
[3]; Test Example 1, relative luciferase activity vs 200 ng/mL NGF alone, overnight (approx. 16 hours)
  Activity (potentiation of NGF activity): ++

## Cc1nc2cc(-c3nc4ccccc4o3)cc(C(F)(F)F)c2n1C1CCOCC1 [Ex. 94]
[3]; [4]
  Activity (potentiation of NGF activity): ++

## Clc1ccccc1-c1nc2cc(-c3nc4ccccc4o3)ccc2n1C1CCOCC1 [Ex. 126, 5-(benzoxazol-2-yl)-2-(2-chlorophenyl)-1-(tetrahydropyran-4-yl)benzimidazole]
[3]; [4]
  Activity (potentiation of NGF activity): ++
